Reference: patent publication US20250345459A1, “COMPOUND OR SALT THEREOF, LIPID COMPOSITION, PHARMACEUTICAL COMPOSITION, AND DELIVERY CARRIER” (FUJIFILM Corporation, priority 2023, published 2025)

How the values were obtained:
[1] = Particle size of EPO mRNA-encapsulating lipid nanoparticles; format: physicochemical; conditions: mixed solution PBS
[2] = tested on: EPO mRNA; assay: mRNA encapsulation rate of mRNA lipid nanoparticles; format: physicochemical; conditions: mixed solution PBS
Summary of the method: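 Lipid nanoparticles made by microfluidic mixing of ionizable lipid:neutral lipid (DSPC or DOPE):cholesterol:DMG-PEG2000 (50:10:38.5:1.5 mol %) with mRNA in pH 4.0 citrate, then dialysed against Tris pH 7.4 with 8% sucrose. Total mRNA was measured by A260−A330 after methanol disruption, outer-phase mRNA by RiboGreen standard addition; encapsulation rate derived from both.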

[3] = tested on: ICR mice; assay: EPO protein expression in mice after intravenous EPO mRNA lipid nanoparticles; format: in vivo; conditions: mRNA 0.1 mg/kg, plasma 6 hours after administration
Summary of the method: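 ICR mice given EPO mRNA lipid nanoparticles (ionized lipid:DSPC or DOPE:cholesterol:DMG-PEG2000 50:10:38.5:1.5 mol %) i.v. at 0.1 mg/kg mRNA. Plasma human EPO measured by ELISA 6 h post-dose, expressed relative to a comparator formulation set to 1.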

[4] = LNP with neutral lipid DSPC, Lipid/Nucleic acid (wt/wt) 20
[5] = neutral lipid DSPC, Lipid/Nucleic acid (wt/wt) 20, Comparative Example 1 is 1
[6] = LNP with neutral lipid DOPE, Lipid/Nucleic acid (wt/wt) 64

SMILES	Particle size (nm) [1, 4] [nm]	Nucleic acid encapsulation rate (%) [2, 4] [%]	Relative amount of EPO protein (to Comparative Example 1) [3, 5]	Particle size (nm) [1, 6] [nm]	Nucleic acid encapsulation rate (%) [2, 6] [%]	Relative amount of EPO protein (to Comparative Example 1) ([3]; neutral lipid DOPE, Lipid/Nucleic acid (wt/wt) 64, Comparative Example 1 is 1)
CCCCCCCCN(CCCCC(=O)OCC(CCCCCC)CCCCCC)C(=O)OCCN(CCCN(CC)CC)CCOC(=O)N(CCCCCCCC)CCCCC(=O)OCC(CCCCCC)CCCCCC [Example 37, Bis(2-hexyloctyl) 11-(3-(diethylamino)propyl)-6,16-dioctyl-7,15-dioxo-8,14-dioxa-6,11,16-triazahenicosanedioate]	136	93	11.39	–	–	–
CCCCCCC(CCCC)COC(=O)CCCCN(CCCCCC)C(=O)OCCN(CCOC(=O)N(CCCCCC)CCCCC(=O)OCC(CCCC)CCCCCC)CCN(CC)CC (stereo not drawn) [Example 17, Bis(2-butyloctyl) 11-(2-(diethylamino)ethyl)-6,16-dihexyl-7,15-dioxo-8,14-dioxa-6,11,16-triazahenicosanedioate]	165	80	5.76	–	–	–
CCCCCCCCN(CCCCC(=O)OCC(CCCCCC)CCCCCC)C(=O)OCCN(CCOC(=O)N(CCCCCCCC)CCCCC(=O)OCC(CCCCCC)CCCCCC)CCN(CC)CC [Example 2, bis(2-hexyloctyl) 11-(2-(diethylamino)ethyl)-6,16-dioctyl-7,15-dioxo-8,14-dioxa-6,11,16-triazahenicosanedioate]	82	94	6.70	95.6	99	24.57
CCCCCCCCOC(=O)CCCCN(CCCCCCCC)C(=O)OCCN(CCOC(=O)N(CCCCCCCC)CCCCC(=O)OCC(CCCCCC)CCCCCC)CCN(CC)CC [Example 42, 1-(2-Hexyloctyl) 21-octyl 11-(2-(diethylamino)ethyl)-6,16-dioctyl-7,15-dioxo-8,14-dioxa-6,11,16-triazahenicosanedioate]	154	82	6.39	–	–	–
